The text below walks through data of patent publication US9452980B2, “Substituted benzamides” (Hoffmann-La Roche Inc., priority 2009, dated 2016).

Where a name gives a salt, the structure may show the parent alone. Read-outs that look alike come from different tables or passages of the source.

In experiment [1] the target is rat TAAR1 (Rattus norvegicus (Rat), UniProt Q923Y9). Briefly: Radioligand binding assay on rat TAAR1. As to conditions: read-out: Ki (μM) rat. On the procedure: (§1) For the construction of expression plasmids the coding sequences of human, rat and mouse TAAR1 were amplified from genomic DNA essentially as described by Lindemann et al.. The Expand High Fidelity PCR System (Roche Diagnostics) was used with 1.5 mM Mg^2+ and purified PCR products were cloned into pCR2.1-TOPO cloning vector (Invitrogen) following the instructions of the manufacturer. PCR products were subcloned into the pIRESneo2 vector (BD Clontech, Palo Alto, Calif.), and expression vectors were sequence verified before introduction in cell lines.
Sequence of rat TAAR1 (Q923Y9 whole entry): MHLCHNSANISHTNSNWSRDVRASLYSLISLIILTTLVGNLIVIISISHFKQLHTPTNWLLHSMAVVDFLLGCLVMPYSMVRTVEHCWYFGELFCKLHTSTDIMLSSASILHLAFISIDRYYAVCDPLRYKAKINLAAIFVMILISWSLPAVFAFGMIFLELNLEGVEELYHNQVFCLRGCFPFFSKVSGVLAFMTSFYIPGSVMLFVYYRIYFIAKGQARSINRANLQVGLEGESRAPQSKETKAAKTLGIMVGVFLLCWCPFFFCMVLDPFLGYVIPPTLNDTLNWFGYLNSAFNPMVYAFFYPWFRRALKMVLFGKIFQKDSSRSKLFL
(§2) HEK293 cells (ATCC #CRL-1573) were cultured essentially as described by Lindemann et al. (2005). For the generation of stably transfected cell lines HEK293 cells were transfected with the pIRESneo2 expression plasmids containing the TAAR coding sequences (described above) with Lipofectamine 2000 (Invitrogen) according to the instructions of the manufacturer, and 24 hrs post transfection the culture medium was supplemented with 1 mg/ml G418 (Sigma, Buchs, Switzerland). After a culture period of about 10 d clones were isolated, expanded and tested for responsiveness to trace amines (all compounds purchased from Sigma) with the cAMP Biotrak Enzyme immunoassay (EIA) System (Amersham) following the non-acetylation EIA procedure provided by the manufacturer.
Radioligand Binding Assay on Rat TAAR1
(§3) Membrane Preparation and Radioligand Binding.
(§4) HEK-293 cells stably expressing rat TAAR1 were maintained at 37° C. and 5% CO2 in DMEM high glucose medium, containing fetal calf serum (10%, heat inactivated for 30 min at 56° C.), penicillin/streptomycin (1%), and 375 μg/ml geneticin (Gibco). Cells were released from culture flasks using trypsin/EDTA, harvested, washed twice with ice-cold PBS (without Ca^2+ and Mg^2+), pelleted at 1,000 rpm for 5 min at 4° C., frozen and stored at −80° C. Frozen pellets were suspended in 20 ml HEPES-NaOH (20 mM, pH 7.4) containing 10 mM EDTA and homogenized with a Polytron (PT 6000, Kinematica) at 14,000 rpm for 20 s. The homogenate was centrifuged at 48,000×g for 30 min at 4° C. Subsequently, the supernatant was removed and discarded, and the pellet resuspended in 20 ml HEPES-NaOH (20 mM, pH 7.4) containing 0.1 mM EDTA using the Polytron (20 s at 14,000 rpm). This procedure was repeated and the final pellet resuspended in HEPES-NaOH containing 0.1 mM EDTA and homogenized using the Polytron. Typically, aliquots of 2 ml membrane portions were stored at −80° C. With each new membrane batch the dissociation constant (Kd) was determined via a saturation curve. […] Nonspecific binding was defined as the amount of ^3[H]—(S)-4-[(ethyl-phenyl-amino)-methyl]-4,5-dihydro-oxazol-2-ylamine bound in the presence of 10 μM unlabeled ligand. All compounds were tested at a broad range of concentrations (10 pM to 10 μM) in duplicates. […] The 96 deep well plates were incubated for 1 hr at 4° C. Incubations were terminated by rapid filtration through Unifilter-96 plates (Packard Instrument Company) and glass filters GF/C (Perkin Elmer) presoaked for 1 hr in polyethylenimine (0.3%) and washed 3 times with 1 ml of cold binding buffer. After addition of 45 μl of Microscint 40 (PerkinElmer) the Unifilter-96 plate was sealed and after 1 hr the ratioactivity counted using a TopCount Microplate Scintillation Counter (Packard Instrument Company).

Experiment [2] has as its target mouse TAAR1 (Mus musculus (Mouse), UniProt Q923Y8). Briefly: Radioligand binding assay on mouse TAAR1. As to conditions: read-out: Ki (μM) mouse. Here is the method: as §1, §2
Radioligand Binding Assay on Mouse TAAR1
as §3
as §4, with “expressing mouse” for “expressing rat”

Setting [3] is: rat TAAR1, HEK-293 membranes, second value of cell mouse/rat.
Where [4] appears, read: mouse TAAR1, HEK-293 membranes, first value of cell mouse/rat.

Sequence of mouse TAAR1 (Q923Y8 whole entry): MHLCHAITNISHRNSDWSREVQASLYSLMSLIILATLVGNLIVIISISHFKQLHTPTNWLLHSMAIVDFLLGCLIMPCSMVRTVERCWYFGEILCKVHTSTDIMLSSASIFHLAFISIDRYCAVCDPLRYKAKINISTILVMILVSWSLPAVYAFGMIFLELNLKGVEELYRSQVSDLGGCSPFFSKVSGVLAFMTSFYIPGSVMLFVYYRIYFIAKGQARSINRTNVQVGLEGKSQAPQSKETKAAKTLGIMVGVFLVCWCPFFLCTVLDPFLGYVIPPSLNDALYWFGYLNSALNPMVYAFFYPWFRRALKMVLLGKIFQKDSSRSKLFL

As to `O=C(Nc1ccc(OC2CCNC2)cc1)c1ccc(Cl)cc1` (racemic) [Example 39, (RS)-4-Chloro-N-[4-(pyrrolidin-3-yloxy)-phenyl]-benzamide hydrochloride], the Ki came to 0.0139 µM in experiment [1] (setting [3]) and 0.0007 µM in experiment [2] (setting [4]).
The matching figures for `O=C(Nc1ccc(C2CCNC2)cc1)c1ccc(Cl)cn1` (racemic) [Example 42, (RS)-5-Chloro-pyridine-2-carboxylic acid (4-pyrrolidin-3-yl-phenyl)-amide hydrochloride]: 0.0354 µM and 0.0033 µM.
For `O=C(Nc1ccc(C2CCNC2)cc1)c1ccc(Cl)nc1` (racemic) [Example 43, (RS)-6-Chloro-pyridine-3-carboxylic acid (4-pyrrolidin-3-yl-phenyl)-amide hydrochloride] the same measures were 0.0242 µM and 0.0041 µM.
As for `O=C(Nc1ccc(C2CCNC2)cc1)Nc1ccc(Cl)cn1` (racemic) [Example 44, (RS)-1-(5-Chloro-pyridin-2-yl)-3-(4-pyrrolidin-3-yl-phenyl)-urea hydrochloride], the Ki in experiment [1] (setting [3]) stood at 0.0022 µM; in experiment [2] (setting [4]), 0.0013 µM.
On to `O=C(Nc1ccc(C2CCNC2)cc1)OC1CCC(F)(F)CC1` (racemic) [Example 45, (RS)-(4-Pyrrolidin-3-yl-phenyl)-carbamic acid 4,4-difluoro-cyclohexyl ester], for which the values for the Ki in experiment [1] (setting [3]) and in experiment [2] (setting [4]) were 0.0077 µM and 0.0131 µM, respectively.
For `O=C(Nc1ccc(C2CCNC2)cc1)OCc1ccc(F)cc1` (racemic) [Example 47, (RS)-(4-Pyrrolidin-3-yl-phenyl)-carbamic acid 4-fluoro-benzyl ester hydrochloride] the same measures were 0.0048 µM and 0.0019 µM.
For `CCOc1ccc(C(=O)Nc2ccc(C3CCNC3)cc2)cc1` (racemic) [Example 52, (RS)-4-Ethoxy-N-(4-pyrrolidin-3-yl-phenyl)-benzamide hydrochloride] the same measures were 0.0109 µM and 0.0017 µM.
`CCCc1ccc(C(=O)Nc2ccc(C3CCNC3)cc2)cc1` (racemic) [Example 53, (RS)-4-Propyl-N-(4-pyrrolidin-3-yl-phenyl)-benzamide hydrochloride]: the figures for the Ki in experiment [1] (setting [3]) and in experiment [2] (setting [4]) were 0.0053 µM and 0.0016 µM, respectively.
As for `C#Cc1ccc(C(=O)Nc2ccc(C3CCNC3)cc2)cc1` (racemic) [Example 54, (RS)-4-Ethynyl-N-(4-pyrrolidin-3-yl-phenyl)-benzamide hydrochloride], the Ki in experiment [1] is 0.0152 µM; in experiment [2] (setting [4]), 0.0021 µM.
Regarding `N#Cc1ccc(C(=O)Nc2ccc(C3CCNC3)cc2)cc1` (racemic) [Example 55, (RS)-4-Cyano-N-(4-pyrrolidin-3-yl-phenyl)-benzamide hydrochloride], the Ki in experiment [1] (setting [3]) worked out at 0.0745 µM; in experiment [2], 0.0048 µM.
As for `O=C(Nc1ccc(C2CCNC2)cc1)c1ccc(Cl)c(Cl)c1` (racemic) [Example 56, (RS)-3,4-Dichloro-N-(4-pyrrolidin-3-yl-phenyl)-benzamide hydrochloride], the Ki in experiment [1] (setting [3]) was 0.0018 µM; in experiment [2] (setting [4]), 0.0008 µM.
The matching figures for `O=C(Nc1ccc(C2CCCNC2)cc1)c1ccc(Cl)cc1` (racemic) [Example 58, (RS)-4-Chloro-N-(4-piperidin-3-yl-phenyl)-benzamide hydrochloride]: 0.0022 µM and 0.0007 µM.
The matching figures for `COC(C(=O)Nc1ccc(C2CCNC2)cc1)c1ccc(Cl)cc1` (racemic) [Example 60, (RS)-2-(4-Chloro-phenyl)-2-methoxy-N—((RS)-4-pyrrolidin-3-yl-phenyl)-acetamide]: 0.0457 µM and 2.83 µM.
The matching figures for `CC(C(=O)Nc1ccc(C2CCNC2)cc1)c1cccc(C(F)(F)F)c1` (racemic) [Example 61, (RS)—N—((RS)-4-Pyrrolidin-3-yl-phenyl)-2-(3-trifluoromethyl-phenyl)-propionamide]: 0.0033 µM and 0.0172 µM.
For `O=C(Nc1ccc([C@@H]2CNC[C@H]2O)cc1)c1ccc(Cl)cc1` (racemic) [Example 63, 4-Chloro-N-[4-((3RS,4SR)-4-hydroxy-pyrrolidin-3-yl)-phenyl]-benzamide hydrochloride], the Ki came out at 0.174 µM in experiment [1] (setting [3]) and 0.0837 µM in experiment [2] (setting [4]).
For `CC(C(=O)Nc1ccc(C2CCNC2)cc1)c1cccc(C(=O)c2ccccc2)c1` (racemic) [Example 64, (RS)-2-(3-Benzoyl-phenyl)-N—((RS)-4-pyrrolidin-3-yl-phenyl)-propionamide] the same measures were 0.0215 µM and 0.124 µM.
The matching figures for `COc1cccc(CC(=O)Nc2ccc(C3CCNC3)cc2)c1` (racemic) [Example 65, (RS)-2-(3-Methoxy-phenyl)-N-(4-pyrrolidin-3-yl-phenyl)-acetamide hydrochloride]: 0.352 µM and 0.125 µM.
The matching figures for `N#Cc1cccc(CC(=O)Nc2ccc(C3CCNC3)cc2)c1` (racemic) [Example 66, (RS)-2-(3-Cyano-phenyl)-N-(4-pyrrolidin-3-yl-phenyl)-acetamide]: 0.645 µM and 0.137 µM.
Take `CC(C(=O)Nc1ccc(C2CCNC2)cc1)c1cccc(C#N)c1` (racemic) [Example 68, (RS)-2-(3-Cyano-phenyl)-N—((RS)-4-pyrrolidin-3-yl-phenyl)-propionamide]: the Ki is 0.102 µM in experiment [1] (setting [3]) and 0.147 µM in experiment [2] (setting [4]).
The matching figures for `O=C(Nc1ccc([C@@H]2CNC[C@@H]2F)cc1)c1ccc(Cl)cc1` (racemic) [Example 69, 4-Chloro-N-[4-((3RS,4RS)-4-fluoro-pyrrolidin-3-yl)-phenyl]-benzamide hydrochloride]: 0.023 µM and 0.0048 µM.
For `O=C(Nc1cccc(C2CNCCO2)c1)c1ccc(Cl)cc1` (racemic) [Example 72, (RS)-4-Chloro-N-(3-morpholin-2-yl-phenyl)-benzamide hydrochloride] the same measures were 0.107 µM and 0.507 µM.
Turning to `O=C(Nc1ccc(C2CCNC2)cc1)c1ccc(-n2cccn2)nc1` (racemic) [Example 73, (RS)-6-Pyrazol-1-yl-N-(4-pyrrolidin-3-yl-phenyl)-nicotinamide hydrochloride], the inhibition constant (Ki) turned out to be 0.0257 µM in experiment [1] (setting [3]) and 0.0056 µM in experiment [2] (setting [4]).

The term Ki denotes a measure of affinity in units of concentration, obtained from inhibition or displacement.
